Reference: PMC12260505, “First-in-Human Phase I/IIa Study of the First-in-Class CDK2/4/6 Inhibitor PF-06873600 Alone or with Endocrine Therapy in Patients with Breast Cancer” (Clinical Cancer Research, 2025)
Where “and” joins values, the source holds several entries; their conditions need not be identical. Identical values can stand only once.

Assay: Plasma PF-06873600 pharmacokinetics (LC/MS-MS, noncompartmental analysis)
Assay type: in vivo, human
Experimental: Plasma samples were analyzed for PF-06873600 concentrations at Q2 Solutions using a validated analytic assay in compliance with Pfizer standard operating procedures. PF-06873600 samples were assayed by a validated LC/MS-MS using positive ionization mode. PK parameters were calculated using noncompartmental analysis of plasma concentration–time data.

[1] = 25 mg twice daily, after multiple dosing
[2] = Cycle 1 Day 1, Part 1 25 mg BID IR (pooled cohorts)
[3] = Cycle 1 Day 1, Part 1A 1 mg BID IR
[4] = Cycle 1 Day 1, Part 1A 2 mg BID IR
[5] = Cycle 1 Day 1, Part 1A 5 mg BID IR
[6] = Cycle 1 Day 1, Part 1A 10 mg BID IR
[7] = Cycle 1 Day 1, Part 1A 25 mg BID Biomarker IR
[8] = Cycle 1 Day 1, Part 1A 25 mg BID IR
[9] = Cycle 1 Day 1, Part 1A 35 mg BID IR
[10] = Cycle 1 Day 1, Part 1A 35 mg BID Intm 5/2 IR
[11] = Cycle 1 Day 1, Part 1A 50 mg BID IR
[12] = Cycle 1 Day 1, Part 1B 25 mg BID +Ful IR
[13] = Cycle 1 Day 1, Part 1B 25 mg BID +Let IR
[14] = Cycle 1 Day 1, Part 1C MR 20 mg lead-in IR 25 mg BID
[15] = Cycle 1 Day 1, Part 1C MR 30 mg BID long duration
[16] = Cycle 1 Day 15, Part 1 25 mg BID IR (pooled cohorts)
[17] = Cycle 1 Day 15, Part 1A 1 mg BID IR

C[C@@]1(O)CCC[C@H]1n1c(=O)c(C(F)F)cc2cnc(NC3CCN(S(C)(=O)=O)CC3)nc21 [PF-06873600]
Geometric mean coefficient of variation percentage, AUCtau [1]: 45% | Geometric mean coefficient of variation percentage, Cmax [1]: 43% | Geometric mean coefficient of variation percentage, Cmin [1]: 119% | Geometric mean coefficient of variation percentage, AUCinf (25 mg twice daily, single dose): 58% | Geometric mean coefficient of variation percentage, Cmax (25 mg twice daily, single dose): 56% | AUCinf, geometric mean (%CV) [2]: 1019 (58) ng.h/mL | AUClast, geometric mean (%CV) [2]: 912.4 (52) ng.h/mL | CL/F, geometric mean (%CV) [2]: 24.55 (58) L/h | Cmax, geometric mean (%CV) [2]: 0.194 µg/mL | Tmax, median (range) [2]: 2.00 h | Vz/F, geometric mean (%CV) [2]: 85.26 (52) L | t1/2, arithmetic mean±standard deviation [2]: 2.444 ± 0.4523 h | AUCinf, individual value(s) [3]: 0.021 µg·h/mL | AUClast, individual value(s) [3]: 0.0183 µg·h/mL | CL/F, individual value(s) [3]: 47.6 L/h | Cmax, individual value(s) [3]: 0.00539 µg/mL | Tmax, median (range) [3]: 2.17 h | Vz/F, individual value(s) [3]: 111 L | t1/2, individual value(s) [3]: 5800 s | AUCinf, individual value(s) [4]: 0.0452 µg·h/mL | AUClast, individual value(s) [4]: 0.0392 µg·h/mL and 0.0583 µg·h/mL | CL/F, individual value(s) [4]: 44.2 L/h | Tmax, median (range) [4]: 1.25 h | Vz/F, individual value(s) [4]: 116 L | t1/2, individual value(s) [4]: 6550 s | AUCinf, individual value(s) [5]: 0.101 µg·h/mL | AUClast, individual value(s) [5]: 0.0966 µg·h/mL and 0.442 µg·h/mL | CL/F, individual value(s) [5]: 49.7 L/h | Tmax, median (range) [5]: 2.02 h | Vz/F, individual value(s) [5]: 141 L | t1/2, individual value(s) [5]: 7060 s | AUCinf, geometric mean (%CV) [6]: 648.4 (60) ng.h/mL | AUClast, geometric mean (%CV) [6]: 599.4 (53) ng.h/mL | CL/F, geometric mean (%CV) [6]: 15.43 (60) L/h | Cmax, geometric mean (%CV) [6]: 0.164 µg/mL | Tmax, median (range) [6]: 0.983 h | Vz/F, geometric mean (%CV) [6]: 55.32 (28) L | t1/2, arithmetic mean±standard deviation [6]: 2.567 h | AUCinf, geometric mean (%CV) [7]: 892.6 (73) ng.h/mL | AUClast, geometric mean (%CV) [7]: 787.9 (59) ng.h/mL | CL/F, geometric mean (%CV) [7]: 28.04 (73) L/h | Tmax, median (range) [7]: 1.90 h | Vz/F, geometric mean (%CV) [7]: 97.32 (56) L | t1/2, arithmetic mean±standard deviation [7]: 2.446 h | AUCinf, geometric mean (%CV) [8]: 1492 (20) ng.h/mL | AUClast, geometric mean (%CV) [8]: 1295 (25) ng.h/mL | CL/F, geometric mean (%CV) [8]: 16.78 (20) L/h | Cmax, geometric mean (%CV) [8]: 0.243 µg/mL | Tmax, median (range) [8]: 2.17 h | Vz/F, geometric mean (%CV) [8]: 61.33 (20) L | t1/2, arithmetic mean±standard deviation [8]: 2.540 h | AUCinf, individual value(s) [9]: 2.01 µg·h/mL and 3.4 µg·h/mL | AUClast, geometric mean (%CV) [9]: 2510 (25) ng.h/mL | CL/F, individual value(s) [9]: 10.3 L/h and 17.4 L/h | Cmax, geometric mean (%CV) [9]: 0.388 µg/mL | Tmax, median (range) [9]: 3.64 h | Vz/F, individual value(s) [9]: 55.5 L and 60.0 L | t1/2, individual value(s) [9]: 8600 s and 13500 s | AUCinf, geometric mean (%CV) [10]: 1614 (48) ng.h/mL | AUClast, geometric mean (%CV) [10]: 1395 (38) ng.h/mL | CL/F, geometric mean (%CV) [10]: 21.70 (48) L/h | Cmax, geometric mean (%CV) [10]: 0.276 µg/mL | Tmax, median (range) [10]: 2.02 h | Vz/F, geometric mean (%CV) [10]: 86.06 (37) L | t1/2, arithmetic mean±standard deviation [10]: 2.809 h | AUCinf, geometric mean (%CV) [11]: 1875 (41) ng.h/mL | AUClast, geometric mean (%CV) [11]: 1976 (49) ng.h/mL | CL/F, geometric mean (%CV) [11]: 26.63 (41) L/h | Cmax, geometric mean (%CV) [11]: 0.394 µg/mL | Tmax, median (range) [11]: 3.49 h | Vz/F, geometric mean (%CV) [11]: 79.74 (15) L | t1/2, arithmetic mean±standard deviation [11]: 2.163 h | AUCinf, geometric mean (%CV) [12]: 884.3 (34) ng.h/mL | AUClast, geometric mean (%CV) [12]: 1034 (43) ng.h/mL | CL/F, geometric mean (%CV) [12]: 28.26 (34) L/h | Cmax, geometric mean (%CV) [12]: 0.225 µg/mL | Tmax, median (range) [12]: 1.97 h | Vz/F, geometric mean (%CV) [12]: 83.54 (17) L | t1/2, arithmetic mean±standard deviation [12]: 2.128 h | AUCinf, geometric mean (%CV) [13]: 1142 (50) ng.h/mL | AUClast, geometric mean (%CV) [13]: 1040 (46) ng.h/mL | CL/F, geometric mean (%CV) [13]: 21.87 (50) L/h | Cmax, geometric mean (%CV) [13]: 0.229 µg/mL | Tmax, median (range) [13]: 2.52 h | Vz/F, geometric mean (%CV) [13]: 72.18 (37) L | t1/2, arithmetic mean±standard deviation [13]: 2.428 h | AUCinf, geometric mean (%CV) [14]: 593.3 (17) ng.h/mL | AUClast, geometric mean (%CV) [14]: 596.8 (33) ng.h/mL | CL/F, geometric mean (%CV) [14]: 42.14 (17) L/h | Cmax, geometric mean (%CV) [14]: 0.122 µg/mL | Tmax, median (range) [14]: 2.00 h | Vz/F, geometric mean (%CV) [14]: 132.2 (52) L | t1/2, arithmetic mean±standard deviation [14]: 2.250 h | AUClast, geometric mean (%CV) [15]: 192.0 (201) ng.h/mL | Cmax, geometric mean (%CV) [15]: 0.0435 µg/mL | Tmax, median (range) [15]: 10.0 (5.35–10.2) h | AUCtau, geometric mean (%CV) [16]: 1351 (45) ng.h/mL | CL/F, geometric mean (%CV) [16]: 18.53 (45) L/h | Cmax, geometric mean (%CV) [16]: 315.5 (43) ng/mL | Cmin, geometric mean (%CV) [16]: 30.23 (119) ng/mL | Rac (observed accumulation ratio based on AUC), geometric mean (%CV) [16]: 1.135 (34) | Tmax, median (range) [16]: 1.94 h | Vz/F, geometric mean (%CV) [16]: 75.77 (43) L | t1/2, arithmetic mean±standard deviation [16]: 2.765 h | AUCtau, individual value(s) [17]: 0.0253 µg·h/mL | CL/F, individual value(s) [17]: 39.5 L/h
